Laboratory results reported in patent publication US10750743B2, “Pyridazinone herbicides” (E.I. DU PONT DE NEMOURS AND COMPANY, priority 2015, dated 2020).

Tests used:
Format in all cases: in vivo
[1] = system: barnyardgrass (Echinochloa crus-galli); assay: Test A preemergence, directed soil spray, visual injury rating; details: 0 is no effect, 100 is complete control
How it was run: (§1)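 Compounds in a surfactant-containing solvent were applied as a directed soil spray preemergence, or postemergence to plants 2-10 cm tall at the one- to two-leaf stage, in loam-sand blend. After about 10 d in the greenhouse, injury was rated visually against untreated controls on a 0-100 scale (100 = complete control).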

[2] = system: foxtail, giant (giant foxtail, Setaria faberii); assay: as above; details: 0 is no effect, 100 is complete control
How it was run: as §1

[3] = system: kochia (Kochia scoparia); assay: as above; details: 0 is no effect, 100 is complete control
How it was run: as §1

[4] = system: pigweed (Amaranthus retroflexus); assay: as above; details: 0 is no effect, 100 is complete control
How it was run: as §1

[5] = system: ragweed (common ragweed, Ambrosia elatior); assay: as above; details: 0 is no effect, 100 is complete control
How it was run: as §1

[6] = system: ryegrass, It. (Italian ryegrass, Lolium multiflorum); assay: as above; details: 0 is no effect, 100 is complete control
How it was run: as §1

[7] = system: barnyardgrass (Echinochloa crus-galli); assay: Test B flooded paddy test, visual rating; details: Flood, 250 g ai/ha, applied to paddy water, rated after 13 to 15 d
How it was run: (§2)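 Plants grown to the 2-leaf stage. At treatment, pots were flooded to 3 cm above the soil, compound was applied directly to the paddy water, and that depth was held throughout. After 13 to 15 d in the greenhouse, response was rated visually against controls on a 0 (no effect) to 100 (complete control) scale.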

[8] = system: ducksalad (Heteranthera limosa); assay: Test B flooded paddy test, visual rating; details: Flood, 250 g ai/ha, applied to paddy water, rated after 13 to 15 d
How it was run: as §2

[9] = system: rice (Oryza sativa); assay: Test B flooded paddy test, visual rating; details: Flood, 250 g ai/ha, applied to paddy water, rated after 13 to 15 d
How it was run: as §2

[10] = system: sedge, umbrella (small-flower umbrella sedge, Cyperus difformis); assay: Test B flooded paddy test, visual rating; details: Flood, 250 g ai/ha, applied to paddy water, rated after 13 to 15 d
How it was run: as §2

[11] = system: barnyardgrass (Echinochloa crus-galli); assay: Test A postemergence application, visual injury rating; details: 0 to 100 scale, 0 no effect, 100 complete control
How it was run: as §1

[12] = system: blackgrass (Alopecurus myosuroides); assay: as above; details: 0 to 100 scale, 0 no effect, 100 complete control
How it was run: as §1

[13] = system: corn (Zea mays); assay: as above; details: 0 to 100 scale, 0 no effect, 100 complete control
How it was run: as §1

[14] = system: foxtail, giant (giant foxtail, Setaria faberii); assay: as above; details: 0 to 100 scale, 0 no effect, 100 complete control
How it was run: as §1

[15] = system: galium (catchweed bedstraw, Galium aparine); assay: as above; details: 0 to 100 scale, 0 no effect, 100 complete control
How it was run: as §1

[16] = system: kochia (Kochia scoparia); assay: as above; details: 0 to 100 scale, 0 no effect, 100 complete control
How it was run: as §1

[17] = system: pigweed (Amaranthus retroflexus); assay: as above; details: 0 to 100 scale, 0 no effect, 100 complete control
How it was run: as §1

[18] = system: ragweed (common ragweed, Ambrosia elatior); assay: as above; details: 0 to 100 scale, 0 no effect, 100 complete control
How it was run: as §1

[19] = system: ryegrass, It. (Italian ryegrass, Lolium multiflorum); assay: as above; details: 0 to 100 scale, 0 no effect, 100 complete control
How it was run: as §1

[20] = system: wheat (Triticum aestivum); assay: as above; details: 0 to 100 scale, 0 no effect, 100 complete control
How it was run: as §1

Row | Compound | Plant response rating (0 to 100 scale), Barnyardgrass ([1]; 125 g ai/ha) | Plant response rating (0 to 100 scale), Foxtail, Giant ([2]; 125 g ai/ha) | Plant response rating (0 to 100 scale), Kochia ([3]; 125 g ai/ha) | Plant response rating (0 to 100 scale), Pigweed ([4]; 125 g ai/ha) | Plant response rating (0 to 100 scale), Ragweed ([5]; 125 g ai/ha) | Plant response rating (0 to 100 scale), Ryegrass, It. ([6]; 125 g ai/ha) | Barnyardgrass plant response rating (0 to 100 scale, 0 is no effect, 100 is complete control) [7] | Ducksalad plant response rating (0 to 100 scale, 0 is no effect, 100 is complete control) [8] | Rice plant response rating (0 to 100 scale, 0 is no effect, 100 is complete control) [9] | Sedge, Umbrella plant response rating (0 to 100 scale, 0 is no effect, 100 is complete control) [10] | Barnyardgrass plant response rating ([11]; 125 g ai/ha) | Blackgrass plant response rating ([12]; 125 g ai/ha) | Corn plant response rating ([13]; 125 g ai/ha) | Foxtail, Giant plant response rating ([14]; 125 g ai/ha) | Galium plant response rating ([15]; 125 g ai/ha) | Kochia plant response rating ([16]; 125 g ai/ha) | Pigweed plant response rating ([17]; 125 g ai/ha) | Ragweed plant response rating ([18]; 125 g ai/ha) | Ryegrass, It. plant response rating ([19]; 125 g ai/ha) | Wheat plant response rating ([20]; 125 g ai/ha) | also measured
1 | CCc1sc2ncccc2c1-c1c(OC(=O)C2CC2)c(C)nn(C)c1=O [Compound 21] | 0 | 0 | 0 | 0 | 0 | 0 | 0 | 0 | 0 | 0 | 0 | 0 | 0 | 0 | 10 | 0 | 10 | 0 | 0 | 0 | Plant response rating (0 to 100 scale), Barnyardgrass ([1]; 500 g ai/ha): 0; Plant response rating (0 to 100 scale), Foxtail, Giant ([2]; 500 g ai/ha): 0; Plant response rating (0 to 100 scale), Kochia ([3]; 500 g ai/ha): 0; Plant response rating (0 to 100 scale), Pigweed ([4]; 500 g ai/ha): 0; Plant response rating (0 to 100 scale), Ragweed ([5]; 500 g ai/ha): 0; Plant response rating (0 to 100 scale), Ryegrass, It. ([6]; 500 g ai/ha): 0; Barnyardgrass plant response rating ([11]; 500 g ai/ha): 0; Blackgrass plant response rating ([12]; 500 g ai/ha): 0; Corn plant response rating ([13]; 500 g ai/ha): 0; Foxtail, Giant plant response rating ([14]; 500 g ai/ha): 0; Galium plant response rating ([15]; 500 g ai/ha): 20; Kochia plant response rating ([16]; 500 g ai/ha): 0; Pigweed plant response rating ([17]; 500 g ai/ha): 30; Ragweed plant response rating ([18]; 500 g ai/ha): 0; Ryegrass, It. plant response rating ([19]; 500 g ai/ha): 0; Wheat plant response rating ([20]; 500 g ai/ha): 0
2 | CCC(=O)Oc1c(C)nn(C)c(=O)c1-c1c(C)ccc2cc(C)oc12 [Compound 22] | 10 | 50 | 90 | 100 | 80 | 80 | 0 | 0 | 0 | 0 | 10 | 80 | 0 | 70 | 90 | 90 | 90 | 90 | 80 | 0 | Plant response rating (0 to 100 scale), Barnyardgrass ([1]; 31 g ai/ha): 0; Plant response rating (0 to 100 scale), Foxtail, Giant ([2]; 31 g ai/ha): 0; Plant response rating (0 to 100 scale), Kochia ([3]; 31 g ai/ha): 30; Plant response rating (0 to 100 scale), Pigweed ([4]; 31 g ai/ha): 100; Plant response rating (0 to 100 scale), Ragweed ([5]; 31 g ai/ha): 20; Plant response rating (0 to 100 scale), Ryegrass, It. ([6]; 31 g ai/ha): 30; Barnyardgrass plant response rating ([11]; 31 g ai/ha): 10; Blackgrass plant response rating ([12]; 31 g ai/ha): 30; Corn plant response rating ([13]; 31 g ai/ha): 0; Foxtail, Giant plant response rating ([14]; 31 g ai/ha): 30; Galium plant response rating ([15]; 31 g ai/ha): 70; Kochia plant response rating ([16]; 31 g ai/ha): 70; Pigweed plant response rating ([17]; 31 g ai/ha): 60; Ragweed plant response rating ([18]; 31 g ai/ha): 70; Ryegrass, It. plant response rating ([19]; 31 g ai/ha): 70; Wheat plant response rating ([20]; 31 g ai/ha): 0
3 | Cc1nn(C)c(=O)c(-c2c(C)sc3ncccc23)c1OC(=O)C1CC1 [Compound 23] | 0 | 0 | 0 | 0 | 0 | 0 | 0 | 0 | 0 | 0 | 0 | 0 | 0 | 0 | 0 | 0 | 0 | 0 | 0 | 0 | Plant response rating (0 to 100 scale), Barnyardgrass ([1]; 500 g ai/ha): 0; Plant response rating (0 to 100 scale), Foxtail, Giant ([2]; 500 g ai/ha): 0; Plant response rating (0 to 100 scale), Kochia ([3]; 500 g ai/ha): 0; Plant response rating (0 to 100 scale), Pigweed ([4]; 500 g ai/ha): 0; Plant response rating (0 to 100 scale), Ragweed ([5]; 500 g ai/ha): 0; Plant response rating (0 to 100 scale), Ryegrass, It. ([6]; 500 g ai/ha): 0; Barnyardgrass plant response rating ([11]; 500 g ai/ha): 0; Blackgrass plant response rating ([12]; 500 g ai/ha): 0; Corn plant response rating ([13]; 500 g ai/ha): 20; Foxtail, Giant plant response rating ([14]; 500 g ai/ha): 0; Galium plant response rating ([15]; 500 g ai/ha): 0; Kochia plant response rating ([16]; 500 g ai/ha): 0; Pigweed plant response rating ([17]; 500 g ai/ha): 40; Ragweed plant response rating ([18]; 500 g ai/ha): 0; Ryegrass, It. plant response rating ([19]; 500 g ai/ha): 10; Wheat plant response rating ([20]; 500 g ai/ha): 0
4 | CCOC(=O)Oc1c(C)nn(C)c(=O)c1-c1c(C)sc2ncccc12 [Compound 24] | 0 | 0 | 0 | 0 | 0 | 10 | 0 | 0 | 0 | 0 | 0 | 0 | 0 | 0 | 0 | 0 | 0 | 0 | 0 | 0 | Plant response rating (0 to 100 scale), Barnyardgrass ([1]; 500 g ai/ha): 0; Plant response rating (0 to 100 scale), Foxtail, Giant ([2]; 500 g ai/ha): 0; Plant response rating (0 to 100 scale), Kochia ([3]; 500 g ai/ha): 0; Plant response rating (0 to 100 scale), Pigweed ([4]; 500 g ai/ha): 0; Plant response rating (0 to 100 scale), Ragweed ([5]; 500 g ai/ha): 0; Plant response rating (0 to 100 scale), Ryegrass, It. ([6]; 500 g ai/ha): 20; Barnyardgrass plant response rating ([11]; 500 g ai/ha): 0; Blackgrass plant response rating ([12]; 500 g ai/ha): 0; Corn plant response rating ([13]; 500 g ai/ha): 10; Foxtail, Giant plant response rating ([14]; 500 g ai/ha): 0; Galium plant response rating ([15]; 500 g ai/ha): 0; Kochia plant response rating ([16]; 500 g ai/ha): 0; Pigweed plant response rating ([17]; 500 g ai/ha): 10; Ragweed plant response rating ([18]; 500 g ai/ha): 0; Ryegrass, It. plant response rating ([19]; 500 g ai/ha): 20; Wheat plant response rating ([20]; 500 g ai/ha): 0
5 | CCC(=O)Oc1c(C)nn(C)c(=O)c1-c1cccc2cc(C)oc12 [Compound 26] | 0 | 0 | 30 | 10 | 10 | 80 | 0 | 0 | 0 | 0 | 10 | 20 | 0 | 30 | 90 | 20 | 40 | 30 | 80 | 0 | Plant response rating (0 to 100 scale), Barnyardgrass ([1]; 31 g ai/ha): 0; Plant response rating (0 to 100 scale), Foxtail, Giant ([2]; 31 g ai/ha): 0; Plant response rating (0 to 100 scale), Kochia ([3]; 31 g ai/ha): 0; Plant response rating (0 to 100 scale), Pigweed ([4]; 31 g ai/ha): 0; Plant response rating (0 to 100 scale), Ragweed ([5]; 31 g ai/ha): 0; Plant response rating (0 to 100 scale), Ryegrass, It. ([6]; 31 g ai/ha): 10; Barnyardgrass plant response rating ([11]; 31 g ai/ha): 0; Blackgrass plant response rating ([12]; 31 g ai/ha): 0; Corn plant response rating ([13]; 31 g ai/ha): 0; Foxtail, Giant plant response rating ([14]; 31 g ai/ha): 0; Galium plant response rating ([15]; 31 g ai/ha): 70; Kochia plant response rating ([16]; 31 g ai/ha): 20; Pigweed plant response rating ([17]; 31 g ai/ha): 30; Ragweed plant response rating ([18]; 31 g ai/ha): 0; Ryegrass, It. plant response rating ([19]; 31 g ai/ha): 50; Wheat plant response rating ([20]; 31 g ai/ha): 0
